The values below come from US20250090510A1, “eIF4G1-eIF1 INHIBITORS AND USE THEREOF” (YEDA RESEARCH AND DEVELOPMENT CO. LTD., priority 2022, published 2025).

Each structure is given as a SMILES string.

One assay concerns eIF2α S52A mutant cells. In words: Polysome profiling and real-time PCR in eIF2α S52A mutant cells. The assay is classed as cell-based, mouse. Particulars: i14G1-10 30 μM, i14G1-12 15 μM, 3 h; for translation of ISR genes in polysome fractions: S52A cells; for overall translation, polysome to monosome ratio (P/M): S52A mutant cells. The source says: FIGS. 6A-G: i14G1-10 and i14G1-12 uncover roles of the eIF4G1-eIF1 complex in ISR, cell cycle and cell survival. […] (6B). Ribo-seq and TI-seq read tracks of representative stress response-associated mRNAs (i.e., ATF3, and GADD45A) in DMSO (black), i14G1-10 (red), and i14G1-12 (green) samples. The red triangle represents 5′UTR TIS codons and the green denotes annotated TIS. Black arrows show the translation direction. (6C) Mouse embryonic fibroblasts (MEFs) control cells and eIF2αS52A mutant MEF cells were treated with Thapsigargin (1 μM) for 1h. Cells were lysed, and cell lysate was analyzed using western blot with the indicated antibodies. (6D) Control cells and eIF2αS52A mutant MEF cells were treated with DMSO, i14G1-10 (30 μM) or i14G1-12 (15 μM) for 3 h, cells were lysed in polysome buffer and loaded onto sucrose density gradient for polysome separation followed by fractionation. The graph presents the polysomes vs monosomes ratio in control MEFs (purple) and eIF2αS52A mutant cells (blue). (6E) Fractions were pooled (from 6D) according to the polysome profile as free (grey), light (blue), and heavy (yellow) polysomal fractions. cDNA was prepared from each fraction pool and real-time PCR was performed for the indicated stress response genes. The data are shown as mean±SEM, n=3. The asterisks denote statistically significant differences compared to DMSO, according to Student's t-tests (one-tailed, paired), *p<0.05; **p<0.01. (6F-G). HEK293T cells were transfected with HA-eIF1 or HA-eIF4E, 48 h later, treated with (6F) 1 μM Thapsigargin or (6G) 250 nM Torin-1. Cell lysates were subjected to immunoprecipitation with HA-agarose beads to precipitate HA-eIF1 and HA-eIF4E to check for co-IP of eIF4G1 using western blot (left). The graphs on the right represent the relative chemiluminescence signal intensity of the co-immunoprecipitation of eIF4G1 with HA-eIF1 or HA-eIF4E of 4 independent experiments. The asterisks denote statistically significant difference compared to DMSO *p<0.05; **p<0.01.
FIGS. 7A-E: (7A) Ribo-seq and TI-seq read tracks of representative stress response-associated mRNAs (DDIT3 and GADD34) in DMSO (black), i14G1-10 (red), and i14G1-12 (green) samples. The red triangle represents 5′UTR TIS codons and the green denotes annotated TIS. Black arrows show the translation direction. […] The graphs in the lower panel are the quantification of ATF4's uORF1′, uORF1, uORF2, and main-ORF reads of the Ribo-seq data. The asterisks denote statistically significant difference compared to DMSO, according to Student's t-tests (one-tailed, paired). **p<0.01, ***p<0.001, ****p<0.0001. (7C) HEK293T cells were treated with DMSO, i14G1-10, and i14G1-12 for 3 h, lysed and subjected to sucrose gradient sedimentation and fractionation. […]

The target of the next assay is T1, eIF1-eIF4G1 interaction (Homo sapiens, UniProt Q04637).
T1 construct: GST-eIF4G1 (aa 675-725) was incubated with His-eIF1; made in house; host or cells: His-eIF1: E. coli BL21
The assay can be described thus: GST pull down of His-eIF1 with GST-eIF4G1. The assay is classed as binding. The settings on record: GST-eIF4G1 (aa 675-725) with His-eIF1, vs DMSO. The source says: FIGS. 1A-G: Identification and initial characterization of eIF1-eIF4G1 inhibitors using a high-throughput drug screen (HTS). (1A) A flowchart describing the steps of the recombinant eIF1-eIF4G1 split-RL HTS. (1B) Selection of drugs that inhibit leaky scanning. HEK293T cells were transfected with a short 5′UTR bearing GFP reporter gene described on the top, treated with the indicated HTS hits, and then analyzed by western blot with GFP antibody. US and DS denote upstream and downstream AUG initiation sites, respectively. (1C) A graph showing the change in the ratio of the upstream and downstream AUG following treatment with the indicated drugs. (1D) The chemical structure of the eIF1-eIF4G1 inhibitors, i14G1-10 and i14G1-12. (1E) His-tagged eIF4G1 and His-tagged eIF1 were expressed in BL21 bacteria and purified using nickel NTA beads. Purified His-tagged eIF4G1 and His-tagged eIF1 were incubated with the indicated doses of either i14G1-10 (0-256 μM) or i14G1-12 (0-256 μM) for 5 minutes, followed by fluorescence measurement. For eIF4G1 excitation was at 280 nm and emission was at 350 nm. For eIF1 excitation was at 274 nm and emission was at 304 nm. The data shown represent three independent replicates. IC50 was calculated using Graphpad prism 9. (1F-1G) Western blots of GST pull down. […]

T1 sequence (Q04637 675-725): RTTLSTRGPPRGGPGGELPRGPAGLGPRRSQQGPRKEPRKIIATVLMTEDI

Take `Cn1ccnc1S/C(=C/C=C(C#N)C#N)c1ccc(Cl)cc1` [i14G1-12]: in the assay on eIF2α S52A mutant cells, the “translation of ISR genes in polysome fractions” value is listed as “upregulated” and the “overall translation, polysome to monosome ratio (P/M)” value is “further inhibited”. The “association of eIF1 with eIF4G1” value at eIF1-eIF4G1 interaction is reported as “decrease in the association of eIF1 with eIF4G1”.

For the compound `O=C(/C=C/Sc1ccc(C(F)(F)F)cn1)c1ccccc1` [i14G1-10], in the assay with eIF2α S52A mutant cells, the “translation of ISR genes in polysome fractions” value is given as “upregulated” and the “overall translation, polysome to monosome ratio (P/M)” value is “not significantly”. At eIF1-eIF4G1 interaction, the “association of eIF1 with eIF4G1” value was “decrease in the association of eIF1 with eIF4G1”.
